Data reported in patent US20050215607A1, “Drug composition for prevention or inhibition of advance of diabetic complication” (priority 2002, published 2005).
Structures can show the parent of a compound that is named as a salt. Blank lines part the entries; values can stand above or below the compound they belong to.

Assays:
[1] = tested on: type II diabetic patients; assay: Clinical study in type II diabetic patients; assay type: in vivo, human; conditions: for Change in HbA1C value, mean value: three times a day just before meals; for Change in 1 hour value of postprandial plasma glucose (PPG), mean value / Change in 2 hour value of postprandial plasma glucose (PPG), mean value / Change in early morning fasting plasma glucose (FPG), mean: at the final evaluation
Experimental: Using the pharmaceutical composition described in Example 1, a clinical study was conducted in type II diabetic patients under the following conditions.
Test drug and Mode of administration: Every patient orally administered either of a combination selected from the following combination groups (one tablet from each) three times a day just before meals (within 5 minutes before starting meal): • The present invention group: (1)+(4) • Positive control group: (2)+(3) • Positive control group: (3)+(4) • (1) a tablet comprising 10 mg of mitiglinide calcium salt hydrate; • (2) a tablet comprising 0.2 mg of voglibose (chemical name: (+)-1L-[1(OH),2,4,5/3]-5-[2-hydroxy-1-(hydroxymethyl)-ethyl]amino-1-C-(hydroxymethyl)-1,2,3,4-cyclohexaneterol); • (3) a placebo tablet of mitiglinide calcium salt hydrate not containing any active ingredient; and • (4) a placebo tablet of voglibose not containing any active ingredient. • Treatment period: 12 weeks
Observation item: The following items were measured before administration, at a certain fixed time after the start of administration and at the completion of administration, and their changes were calculated, or the frequency of adverse drug reactions was calculated, and then evaluated.

healthy male adults = assay: Clinical study on administration timing; assay type: in vivo, human
Experimental: Administration timing before taking a meal was evaluated in healthy male adults. Used test drugs were a tablet comprising 10 mg of mitiglinide calcium salt hydrate and a placebo tablet. The tablet comprising 10 mg of mitiglinide calcium salt hydrate was administered at 0.5 min, 5 min, 10 min or 30 min before starting meal (Positive group), while the placebo tablet was administered at 0.5 min before starting meal. After administration, blood glucose levels were measured at starting meal and evaluated.

[2] = Disposition (half-life) of mitiglinide; conditions: human, in vivo, oral; single dose of 5 mg and more
[3] = Required single dose to reduce HbA1C value; assay type: in vivo; conditions: as a single dose
[4] = in comparison with voglibose and placebo

Compound: OCC(CO)N[C@H]1C[C@](O)(CO)[C@@H](O)[C@H](O)[C@H]1O [voglibose, (+)-1L-[1(OH),2,4,5/3]-5-[2-hydroxy-1-(hydroxymethyl)-ethyl]amino-1-C-(hydroxymethyl)-1,2,3,4-cyclohexaneterol, reference compound]
Change in HbA1C value, mean value ([1]; 4 weeks): −0.14% | Change in HbA1C value, mean value ([1]; 8 weeks): −0.14% | Change in HbA1C value, mean value ([1]; 12 weeks): −0.11% | Change in 1 hour value of postprandial plasma glucose (PPG), mean value ([1]; treatment period 12 weeks): -24.8 mg/dL | Change in 2 hour value of postprandial plasma glucose (PPG), mean value ([1]; treatment period 12 weeks): -5.1 mg/dL | Change in early morning fasting plasma glucose (FPG), mean ([1]; treatment period 12 weeks): 0.5 mg/dL | HbA1C value (result in words) ([1]; in comparison with placebo): significantly lowered | Change in HbA1C value, mean value ([1]; the final evaluation): −0.11% | Frequency of adverse drug reactions: gastrointestinal disorder ([1]; treatment period 12 weeks): 24.5% | Frequency of adverse drug reactions: hypoglycemic symptoms ([1]; treatment period 12 weeks): 4.5%

frequencies of hypoglycemic symptoms and gastrointestinal disorders (result in words) ([1]; human, in vivo): decreased | Blood glucose level at starting meal, mean (healthy male adults; 10 mg tablet administered 0.5 min before starting meal): 87.0 mg/dL | Blood glucose level at starting meal, mean (healthy male adults; 10 mg tablet administered 5 min before starting meal): 83.8 mg/dL | Blood glucose level at starting meal, mean (healthy male adults; 10 mg tablet administered 10 min before starting meal): 84.2 mg/dL | Blood glucose level at starting meal, mean (healthy male adults; 10 mg tablet administered 30 min before starting meal): 55.7 mg/dL | blood glucose level at starting meal (result in words) (healthy male adults; administered at 30 minutes before starting meal): notably declined
Compound: O=C(O)[C@H](CC(=O)N1C[C@H]2CCCC[C@H]2C1)Cc1ccccc1 [Mitiglinide calcium salt hydrate, (+)-monocalcium bis[(2S, 3a, 7a-cis)-α-benzylhexahydro-γ-oxo-2-isoindolinebutyrate] dihydrate]
Change in HbA1C value, mean value ([1]; 4 weeks): −0.30% | Change in HbA1C value, mean value ([1]; 8 weeks): −0.46% | Change in HbA1C value, mean value ([1]; 12 weeks): −0.46% | HbA1C value (result in words) ([1]; after 4 weeks after the start of administration, in comparison with voglibose and placebo): significantly lowered | Change in 1 hour value of postprandial plasma glucose (PPG), mean value ([1]; treatment period 12 weeks): -53.1 mg/dL | Change in 2 hour value of postprandial plasma glucose (PPG), mean value ([1]; treatment period 12 weeks): -50.1 mg/dL | Change in early morning fasting plasma glucose (FPG), mean ([1]; treatment period 12 weeks): -8.0 mg/dL | Frequency of adverse drug reactions: gastrointestinal disorder ([1]; human, in vivo, 12 weeks): 17.6% | Frequency of adverse drug reactions: hypoglycemic symptoms ([1]; human, in vivo, 12 weeks): 2.0% | 1 hour and 2 hour values of postprandial plasma glucose (PPG) (result in words) [1, 4]: significantly lowered | early morning fasting plasma glucose (FPG) (result in words) [1, 4]: significantly lowered | Change in HbA1C value, mean value ([1]; the final evaluation): −0.44% | blood glucose level at starting meal (result in words) (healthy male adults; administered within 10 minutes before starting meal): able to maintain good blood glucose level

half-life [2]: ~1.5 h
Compound: O=C(O)[C@H](CC(=O)N1C[C@H]2CCCC[C@H]2C1)Cc1ccccc1 [mitiglinide]
required dosage to reduce HbA1C value significantly [3]: ≥ 5 mg
